# From US7884083B2, “Immunomodulatory compositions, methods of making, and methods of use thereof” (Dynavax Technologies Corporation, priority 2002, dated 2011)
# Experiments:
# [1] = tested on: human peripheral blood lymphocytes (PBMCs); assay: hPBMC assay: IFN-γ and IFN-α production by human PBMCs (ELISA); format: cell-based; settings: for IFN-γ/α-enhancing activity in comparison to PMXB or CLN: in words, Table 10 experiment; for immunomodulatory activity in the hPBMC assay: result in words
# [2] = dodecyl spacer measured as dialcohol precursor; cited from earlier work
# [3] = hydrophobic/lipophilic balance value; cited from earlier work
# [4] = tested on: plasmacytoind dendritic cells (PDCs) of human PBMCs; assay: Intracellular staining and FACS analysis of IFN-α production from PDCs; format: cell-based; settings: double-staining cells as percentage of total PBMCs, 20 μg/mL oligonucleotide, 100 μg/mL PMXB, six hours
# Method: Intracellular staining assays and FACS analysis were used to examine IFN-α production from the plasmacytoind dendritic cells (PDCs) of human PBMCs. […] For these assays, the IMC or -ISS and the polymyxin were added separately to the PBMC cell culture which contained human serum albumin. […] After the six hours, the cells were stained with a fluorescently labeled PDC marker, anti-BCDA-2 labeled with FITC, and with anti-IFN-α labeled with PE. FACS analysis of the labeled cells was performed.
# [5] = Donor 28212, Controls, 20 μg/ml oligonucleotide, 100 μg/ml polymyxin
# [6] = Donor 28213, Controls, 20 μg/ml oligonucleotide, 100 μg/ml polymyxin
# [7] = Donor 28232, no Time given, 20 μg/ml oligonucleotide, 100 μg/ml polymyxin
# [8] = Donor 28233, no Time given, 20 μg/ml oligonucleotide, 100 μg/ml polymyxin
# [9] = Donor # 20, 20 μg/ml oligonucleotide, 100 μg/ml PMXB, 24 hours
# [10] = Donor # 37, 20 μg/ml oligonucleotide, 100 μg/ml PMXB, 24 hours
# [11] = Donor # 75, 20 μg/ml oligonucleotide, 100 μg/ml PMXB, 24 hours
# [12] = Donor # 86, 20 μg/ml oligonucleotide, 100 μg/ml PMXB, 24 hours
# [13] = Donor # 87, 20 μg/ml oligonucleotide, 100 μg/ml PMXB, 24 hours
# [14] = Donor # 88, 20 μg/ml oligonucleotide, 100 μg/ml PMXB, 24 hours
# [15] = Donor # 89, 20 μg/ml oligonucleotide, 100 μg/ml PMXB, 24 hours
# [16] = Donor # 90, 20 μg/ml oligonucleotide, 100 μg/ml PMXB, 24 hours
# [17] = Donor # 91, 20 μg/ml oligonucleotide, 100 μg/ml PMXB, 24 hours
# [18] = Donor # 95, 20 μg/ml oligonucleotide, 100 μg/ml PMXB, 24 hours
# [19] = Donor # 96, 20 μg/ml oligonucleotide, 100 μg/ml PMXB, 24 hours
# [20] = Donor # 97, 20 μg/ml oligonucleotide, 100 μg/ml PMXB, 24 hours
# [21] = Mean (Table 4), Controls, 20 μg/ml oligonucleotide, 100 μg/ml polymyxin
# [22] = Mean (Table 6), no Time given, 20 μg/ml oligonucleotide, 100 μg/ml polymyxin
# [23] = Mean of donors (Table 2), 20 μg/ml oligonucleotide, 100 μg/ml PMXB, 24 hours
# [24] = Table 3, Donor 1, PMXB 100 μg/ml, AMTB 10 μg/ml, serum containing medium
# [25] = Table 3, Donor 2, PMXB 100 μg/ml, AMTB 10 μg/ml, serum containing medium
# [26] = Table 3, Mean, PMXB 100 μg/ml, AMTB 10 μg/ml, serum containing medium
# [27] = Table 9, Mean, 20 μg/ml oligonucleotide, 100 μg/ml polymyxin
# [28] = Table 9, donor 149, 20 μg/ml oligonucleotide, 100 μg/ml polymyxin
# [29] = Table 9, donor 208, 20 μg/ml oligonucleotide, 100 μg/ml polymyxin
# [30] = Donor 198, no Time given, 20 μg/ml oligonucleotide
# [31] = Donor 199, no Time given, 20 μg/ml oligonucleotide
# [32] = Donor # 9, 20 μg/ml oligonucleotide, 100 μg/ml PMXB, 24 hours
# [33] = Donor # 94, 20 μg/ml oligonucleotide, 100 μg/ml PMXB, 24 hours
# [34] = Mean (Table 5), no Time given, 20 μg/ml oligonucleotide
# [35] = Table 10, donor 1, 20 μg/ml oligonucleotide, 100 μg/ml polymyxin derivative added separately, 24 hours
# [36] = Table 10, donor 2, 20 μg/ml oligonucleotide, 100 μg/ml polymyxin derivative added separately, 24 hours
# [37] = Table 10, donor 3, 20 μg/ml oligonucleotide, 100 μg/ml polymyxin derivative added separately, 24 hours
# [38] = Table 10, donor 4, 20 μg/ml oligonucleotide, 100 μg/ml polymyxin derivative added separately, 24 hours
# [39] = Table 10, donor 5, 20 μg/ml oligonucleotide, 100 μg/ml polymyxin derivative added separately, 24 hours
# [40] = Table 10, donor 6, 20 μg/ml oligonucleotide, 100 μg/ml polymyxin derivative added separately, 24 hours
# [41] = Table 10, mean of 6 donors, 20 μg/ml oligonucleotide, 100 μg/ml polymyxin derivative added separately, 24 hours
molecule,measurement,setting,value
polymyxin B nonapeptide [PMXB-9],IFN-γ/α-enhancing activity in comparison to PMXB or CLN,[1],substantially reduced
Polymyxin B [PMXB],IFN-α,[1]; [5],268 pg/mL
same,IFN-γ,[1]; [5],5 pg/mL
same,IFN-α,[1]; [6],213 pg/mL
same,IFN-γ,[1]; [6],4 pg/mL
same,IFN-Υ,[1]; [7],8 pg/mL
same,IFN-α,[1]; [7],16 pg/mL
same,IFN-Υ,[1]; [8],7 pg/mL
same,IFN-α,[1]; [8],84 pg/mL
same,IFN-γ,[1]; [9],20 pg/mL
same,IFN-α,[1]; [10],0 pg/mL
same,IFN-γ,[1]; [10],228 pg/mL
same,IFN-γ,[1]; [11],6 pg/mL
same,IFN-α,[1]; [12],353 pg/mL
same,IFN-γ,[1]; [12],23 pg/mL
same,IFN-α,[1]; [13],326 pg/mL
same,IFN-γ,[1]; [13],33 pg/mL
same,IFN-α,[1]; [14],33 pg/mL
same,IFN-γ,[1]; [14],112 pg/mL
same,IFN-α,[1]; [15],9 pg/mL
same,IFN-γ,[1]; [15],3 pg/mL
same,IFN-α,[1]; [16],0 pg/mL
same,IFN-γ,[1]; [16],0 pg/mL
same,IFN-α,[1]; [17],0 pg/mL
same,IFN-γ,[1]; [17],47 pg/mL
same,IFN-α,[1]; [18],0 pg/mL
same,IFN-γ,[1]; [18],17 pg/mL
same,IFN-γ,[1]; [19],55 pg/mL
same,IFN-γ,[1]; [20],21 pg/mL
same,IFN-α,[1]; [21],241 pg/mL
same,IFN-γ,[1]; [21],5 pg/mL
same,IFN-Υ,[1]; [22],7 pg/mL
same,IFN-α,[1]; [22],50 pg/mL
same,IFN-α,[1]; [23],90 pg/mL
same,IFN-γ,[1]; [23],47 pg/mL
same,IFN-α,[1]; [24],1 pg/mL
same,IFN-γ,[1]; [24],23 pg/mL
same,IFN-α,[1]; [25],0 pg/mL
same,IFN-γ,[1]; [25],6 pg/mL
same,IFN-α,[1]; [26],0 pg/mL
same,IFN-γ,[1]; [26],15 pg/mL
same,IFN-Υ,[1]; [27],127 pg/mL
same,IFN-α,[1]; [27],32 pg/mL
same,IFN-Υ,[1]; [28],195 pg/mL
same,IFN-α,[1]; [28],32 pg/mL
same,IFN-Υ,"[1]; Table 9, donor 206, 20 μg/ml oligonucleotide, 100 μg/ml polymyxin",14 pg/mL
same,IFN-Υ,[1]; [29],171 pg/mL
same,IFN-α,[1]; [29],32 pg/mL
same,IFN-α,"[1]; Table 9, donor 209, 20 μg/ml oligonucleotide, 100 μg/ml polymyxin",32 pg/mL
same,immunomodulatory activity in the hPBMC assay,[1],no immunomodulatory activity on its own
"OCCCCCCCCCCCCO [1,12-dihydroxydodecane]",solubility,[2],< 5000 µg/mL
polyethylene glycol sorbitan monooleate,HLB,[3],15.4
"5′-TGACTGTGAACCTTAGAGATGA-3′ (DNA, all phosphorothioate, methylation of C not given here) [−ISS]",IFN-α,[1]; [30],151 pg/mL
same,IFN-γ,[1]; [30],5 pg/mL
same,IFN-α,[1]; [31],279 pg/mL
same,IFN-γ,[1]; [31],18 pg/mL
same,IFN-α,[1]; [5],225 pg/mL
same,IFN-γ,[1]; [5],5 pg/mL
same,IFN-α,[1]; [6],156 pg/mL
same,IFN-γ,[1]; [6],7 pg/mL
same,IFN-α,[1]; [32],0 pg/mL
same,IFN-γ,[1]; [32],0 pg/mL
same,IFN-γ,[1]; [9],4 pg/mL
same,IFN-α,[1]; [10],0 pg/mL
same,IFN-γ,[1]; [10],5 pg/mL
same,IFN-γ,[1]; [11],1 pg/mL
same,IFN-α,[1]; [12],15 pg/mL
same,IFN-γ,[1]; [12],12 pg/mL
same,IFN-α,[1]; [13],0 pg/mL
same,IFN-γ,[1]; [13],12 pg/mL
same,IFN-α,[1]; [14],19 pg/mL
same,IFN-γ,[1]; [14],70 pg/mL
same,IFN-α,[1]; [15],17 pg/mL
same,IFN-γ,[1]; [15],7 pg/mL
same,IFN-α,[1]; [16],0 pg/mL
same,IFN-γ,[1]; [16],0 pg/mL
same,IFN-α,[1]; [17],0 pg/mL
same,IFN-γ,[1]; [17],30 pg/mL
same,IFN-α,[1]; [33],0 pg/mL
same,IFN-γ,[1]; [33],0 pg/mL
same,IFN-α,[1]; [18],0 pg/mL
same,IFN-γ,[1]; [18],4 pg/mL
same,IFN-γ,[1]; [19],9 pg/mL
same,IFN-γ,[1]; [20],5 pg/mL
same,IFN-α,[1]; [21],191 pg/mL
same,IFN-γ,[1]; [21],6 pg/mL
same,IFN-α,[1]; [34],215 pg/mL
same,IFN-γ,[1]; [34],12 pg/mL
same,IFN-α,[1]; [23],5 pg/mL
same,IFN-γ,[1]; [23],11 pg/mL
same,IFN-α,[1]; [24],3 pg/mL
same,IFN-γ,[1]; [24],1 pg/mL
same,IFN-α,[1]; [25],0 pg/mL
same,IFN-γ,[1]; [25],0 pg/mL
same,IFN-α,[1]; [26],1 pg/mL
same,IFN-γ,[1]; [26],0 pg/mL
same,IFN-α,[1]; [35],52 pg/mL
same,IFN-γ,[1]; [35],2 pg/mL
same,IFN-α,[1]; [36],52 pg/mL
same,IFN-γ,[1]; [36],2 pg/mL
same,IFN-α,[1]; [37],52 pg/mL
same,IFN-γ,[1]; [37],2 pg/mL
same,IFN-α,[1]; [38],52 pg/mL
same,IFN-γ,[1]; [38],2 pg/mL
same,IFN-α,[1]; [39],26 pg/mL
same,IFN-γ,[1]; [39],10 pg/mL
same,IFN-α,[1]; [40],26 pg/mL
same,IFN-γ,[1]; [40],2 pg/mL
same,IFN-α,[1]; [41],43 pg/mL
same,IFN-γ,[1]; [41],3 pg/mL
polyoxyethylene(20) sorbitan trioleate [Tween 85],IFN-Υ,[1]; [7],15 pg/mL
same,IFN-α,[1]; [7],66 pg/mL
same,IFN-Υ,[1]; [8],6 pg/mL
same,IFN-α,[1]; [8],55 pg/mL
same,IFN-Υ,[1]; [22],11 pg/mL
same,IFN-α,[1]; [22],60 pg/mL
same,HLB,[3],11
"5′-TGCTTGCAAGCTTGCAAGCA-3′ (listed as DNA, chemistry not given here) [−ISS SEQ ID NO: 38, reference compound]",BCDA-2/IFN-α d.p. %,[4]; donor 1,0.00%
same,BCDA-2/IFN-α d.p. %,[4]; donor 2,0.00%
same,BCDA-2/IFN-α d.p. %,[4]; mean,0.00%
5′-TCGTCGAACGTTCGAGATGAT-3′ [SEQ ID NO: 39],BCDA-2/IFN-α d.p. %,[4]; donor 1,0.08%
same,BCDA-2/IFN-α d.p. %,[4]; donor 2,0.14%
same,BCDA-2/IFN-α d.p. %,[4]; mean,0.11%
colistin methanesulfonate [CMS],IFN-γ/α-enhancing activity in comparison to PMXB or CLN,[1],substantially reduced
"C[C@@H]1[C@H](O)[C@@H](C)/C=C/C=C/C=C/C=C/C=C/C=C/C=C/[C@H](O[C@@H]2O[C@H](C)[C@@H](O)[C@H](N)[C@@H]2O)C[C@@H]2O[C@](O)(C[C@@H](O)C[C@@H](O)[C@H](O)CC[C@@H](O)C[C@@H](O)CC(=O)O[C@H]1C)C[C@H](O)[C@H]2C(=O)O [AMTB, amphotericin B]",IFN-α,[1]; [24],0 pg/mL
same,IFN-γ,[1]; [24],0 pg/mL
same,IFN-α,[1]; [25],0 pg/mL
same,IFN-γ,[1]; [25],0 pg/mL
same,IFN-α,[1]; [26],0 pg/mL
same,IFN-γ,[1]; [26],0 pg/mL
same,immunomodulatory activity in the hPBMC assay,[1],no activity on its own
